Data from patent publication US20210179680A1, “POLYPEPTIDE, DERIVATIVES THEREOF, AND APPLICATION THEREOF IN PREPARATION OF DRUGS HAVING RESISTANCE TO PULMONARY FIBROSIS” (priority 2016, published 2021).
Bridge positions count the residues as written; N and C are the ends. Square brackets hold non-standard residues; d marks the D form. Peptide text beside a SMILES is read from it. S5 = C=CCCC[C@](C)(N)C(=O)O

What was measured:
TRB3 protein = target: T1, TRB3 protein (Homo sapiens, UniProt Q96RU7); assay: Surface plasmon resonance (Biacore T200) binding of polypeptides to TRB3 protein; conditions: SPR, FIG. 4-1, 4-2 and Table 1
T1 construct: purchased RD
T1 sequence (Q96RU7 1-358): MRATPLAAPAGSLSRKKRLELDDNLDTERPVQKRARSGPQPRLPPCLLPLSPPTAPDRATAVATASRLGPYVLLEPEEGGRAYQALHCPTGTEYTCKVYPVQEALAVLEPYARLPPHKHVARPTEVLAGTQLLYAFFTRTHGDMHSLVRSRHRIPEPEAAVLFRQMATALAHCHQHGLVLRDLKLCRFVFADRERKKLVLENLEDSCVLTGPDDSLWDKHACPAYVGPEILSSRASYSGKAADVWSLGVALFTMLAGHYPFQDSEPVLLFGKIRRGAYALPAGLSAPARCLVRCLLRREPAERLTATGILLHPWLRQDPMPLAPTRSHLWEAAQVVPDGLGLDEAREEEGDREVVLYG
Experimental: The surface plasmon resonance experiment was carried out in a surface plasmon resonator Biacore T200, and the procedure was carried out in accordance with the instructions of the plasma resonator Biacore T200. Specific steps are as follows:
1. Purified TRB3 protein (purchased from RD) was coupled to a CMS chip (purchased from GE) by amidogen, and the unbound protein was eluted at a flow rate of 10 μL/min. The surface of the chip was equilibrated for 2 hours. Among them, the specific steps of amidogen coupling, elution and equilibration refer to the relevant instruction of GE's CMS chip.
2. 250 μL of the S1-S11 and MR2 polypeptide fragments prepared in Example 1 with different concentrations (800, 400, 200, 50, 12.5, 6.25, and 3.125 nM) were automatically injected, and the entire surface plasmon resonance experiment was carried out at 25° C. The buffer used was HBS-EP buffer [0.01 M HEPES, 0.15 M NaCl, 3 mM EDTA and 0.005% (w/w) surfactant TWEEN20]. Biacore T200's built-in analysis software was used to simulate the binding curves of different concentrations of peptides to TRB3.

[1] = α-helix ratio of polypeptides by circular dichroism; type: physicochemical; conditions: PBS solution, 1 mg/mL
Experimental: The α-helix ratio of the polypeptide was measured by a circular dichromatograph (purchased from Jasco, Japan). The polypeptides MR2, S1, S2, S3, S4, S5, S6, S7, S8, S9, S10 and S11 prepared in Example 1 were dissolved in PBS solution, and the working concentration of the circular dichromatograph was adjusted to 1 mg/mL. […] Among them, the α-helix ratio refers to the percentage of the number of peptide segments of the polypeptide that maintains the alpha helix of the secondary structure in the peptide segments of the total polypeptide.

[2] = target: T2, TRB3/MDM2 protein interaction (Homo sapiens, UniProt Q96RU7); assay: Co-immunoprecipitation: inhibition of binding of MDM2 to TRB3 in BEAS-2B cells; type: cell-based; conditions: BEAS-2B cells with TRB3 expression plasmid, 1 mg/mL polypeptide, 12 hours, co-IP with MDM2 antibody
T2 construct: host or cells: BEAS-2B
T2 sequence (Q96RU7 1-358): T1 sequence (Q96RU7 1-358)
Experimental: 1. Human lung epithelial BEAS-2B cells (purchased from Institute of Basic Medical Sciences, Chinese Academy of Medical Sciences) were seeded in a 90 mm^2 culture dish. After the cells were adhered to the wall of culture dish, the TRB3 expression plasmid were transferred to the cells according to the method described in Example 5. After 24 hours, 1 mg/mL of the polypeptides MR2, S1, S2, S3, S4, S5, S6, S7, S8, S9, S10 or S11 prepared in Example 1 were added respectively, and the cells were incubated for 12 hours in a 37° C. incubator and then harvested.
2. Co-immunoprecipitation with MDM2 antibody was performed according to the method described in Example 3, followed by detection using TRB3 antibody.

[3] = tested on: mice with bleomycin-induced pulmonary fibrosis; assay: Survival rate of mice with bleomycin-induced pulmonary fibrosis; type: in vivo, C57BL/6 mice; conditions: Table 3 groups: 2 mg/kg i.p., 10th to 28th day after modeling, twice a week
Experimental: Male C57BL/6 mice were fasted overnight, then anesthetized with 45 mg/kg sodium pentobarbital by injection intraperitoneally (i.p.), and intratracheally injected with bleomycin at a dose of 3 U/kg. The specific operation steps are as follows: cut the neck skin of the mouse with as little trauma as possible, expose the trachea with the assistance of elbow ophthalmic forceps, puncture the trachea and inject about 50 μL of bleomycin into the trachea with a microsyringe, rotate the mouse quickly and stand it upright for 5 minutes in order to make bleomycin evenly enter the left and right lobe, thereby constructing an animal model. The whole operation was performed at a surgical table at about […]. Mice in the sham operation group were intratracheally injected with an equal amount of physiological saline for injection.
The animal model with pulmonary fibrosis was prepared according to the method described in Example 2. The peptide therapy was started from the 10th day after modeling (the treatment groups are shown in Table 3), and the time was calculated from the 10th day after modeling to count the mortality rate. The death situation of each group of experimental animals was counted and calculated daily. […] The survival rate is the percentage of the number of mice that survived accounting for the number of mice in the whole group. Results are shown in FIG. 6-1, FIG. 6-2 and Table 4. […] In FIG. 6-1 and FIG. 6-2, “##” represents that P value is less than 0.01 when the survival rate of administration group was compared with that of the sham operation group; “*” represents that P value is less than 0.05 when the survival rate of administration group was compared with that of the bleomycin group; “**” represents that P value is less than 0.01 when the survival rate of administration group was compared with that of bleomycin group; and “i.p.” refers to intraperitoneal injection.
The animal model of pulmonary fibrosis was prepared according to the method described in Example 2. The polypeptide treatment was started from the 10th day after modeling (the treatment groups are shown in Table 9), and the time was calculated from the 10th day after modeling to count the mortality rate. The mortality rate of each group of experimental animals was recorded and calculated daily. If none of the animals in a group died, the survival rate of the group is 100%. If all the animals in a group died, the survival rate is 0%. […] In FIG. 12, “##” represents that P value is less than 0.01 when the survival rate of the administration groups were compared with that of the sham operation group; “*” represents that P value is less than 0.05 and “**” represents that P value is less than 0.01 when the survival rate of the administration groups were compared with bleomycin group.

Row | SMILES | interaction with the TRB3 protein (in words) (TRB3 protein) | α-helicity (%) [1] | α-helix ratio compared with polypeptide MR2 (in words) [1] | interaction of TRB3 and MDM2 protein (FIG. 5, in words) [2] | Survival rate (%) 7 days [3] | Survival rate (%) 14 days [3] | Survival rate (%) 21 days [3] | Survival rate (%) 28 days [3]
1 | CSCC[C@H](NC(=O)[C@H](CC(C)C)NC(=O)[C@@H](N)Cc1c[nH]cn1)C(=O)N[C@@H](C)C(=O)N[C@@H](CS)C(=O)N[C@@H](Cc1ccccc1)C(=O)N[C@@]1(C)CCCC=CCCC[C@@](C)(C(=O)N[C@@H](CC(C)C)C(=O)N[C@@H](CCCCN)C(=O)N[C@@H](CCCCN)C(=O)N[C@@H](CCCNC(=N)N)C(=O)O)NC(=O)[C@H](CCCCN)NC(=O)[C@H](C)NC(=O)[C@H](CS)NC1=O [S7, His-Leu-Met-Ala-Cys-Phe-S5-Cys-Ala-Lys-S5-Leu-Lys-Lys-Arg] (H-HLMACF[S5]CAK[S5]LKKR-OH; staple 7-11; N-terminus and C-terminus assumed) | interacted with the TRB3 protein | 51.0% | significantly higher than that of polypeptide MR2 | interrupted | 100% | 100% | 93.33% | 93.33%
2 | CSCC[C@H](NC(=O)[C@H](CC(C)C)NC(=O)[C@@H](N)Cc1c[nH]cn1)C(=O)N[C@@H](C)C(=O)N[C@@H](CS)C(=O)N[C@@H](Cc1ccccc1)C(=O)N[C@H](C(=O)N[C@@]1(C)CCCC=CCCC[C@@](C)(C(=O)N[C@@H](CCCCN)C(=O)N[C@@H](CCCCN)C(=O)N[C@@H](CCCNC(=N)N)C(=O)O)NC(=O)[C@H](CCCCN)NC(=O)[C@H](CCCCN)NC(=O)[C@H](C)NC1=O)[C@@H](C)O [S8, His-Leu-Met-Ala-Cys-Phe-Thr-S5-Ala-Lys-Lys-S5-Lys-Lys-Arg] (H-HLMACFT[S5]AKK[S5]KKR-OH; staple 8-12; N-terminus and C-terminus assumed) | interacted with the TRB3 protein | 29.1% | significantly higher than that of polypeptide MR2 | interrupted | 100% | 100% | 93.33% | 86.67%
3 | CSCC[C@H](NC(=O)[C@H](CC(C)C)NC(=O)[C@@H](N)Cc1c[nH]cn1)C(=O)N[C@@H](C)C(=O)N[C@@H](CS)C(=O)N[C@@H](Cc1ccccc1)C(=O)N[C@H](C(=O)N[C@@H](CS)C(=O)N[C@@]1(C)CCCC=CCCC[C@@](C)(C(=O)N[C@@H](CCCCN)C(=O)N[C@@H](CCCNC(=N)N)C(=O)O)NC(=O)[C@H](CC(C)C)NC(=O)[C@H](CCCCN)NC(=O)[C@H](CCCCN)NC1=O)[C@@H](C)O [S9, His-Leu-Met-Ala-Cys-Phe-Thr-Cys-S5-Lys-Lys-Leu-S5-Lys-Arg] (H-HLMACFTC[S5]KKL[S5]KR-OH; staple 9-13; N-terminus and C-terminus assumed) | interacted with the TRB3 protein | 44.0% | significantly higher than that of polypeptide MR2 | interrupted | 100% | 93.33% | 93.33% | 93.33%
4 | CSCC[C@H](NC(=O)[C@H](CC(C)C)NC(=O)[C@@H](N)Cc1c[nH]cn1)C(=O)N[C@@H](C)C(=O)N[C@@H](CS)C(=O)N[C@@H](Cc1ccccc1)C(=O)N[C@H](C(=O)N[C@@H](CS)C(=O)N[C@@H](C)C(=O)N[C@@]1(C)CCCC=CCCC[C@@](C)(C(=O)N[C@@H](CCCNC(=N)N)C(=O)O)NC(=O)[C@H](CCCCN)NC(=O)[C@H](CC(C)C)NC(=O)[C@H](CCCCN)NC1=O)[C@@H](C)O [S10, His-Leu-Met-Ala-Cys-Phe-Thr-Cys-Ala-S5-Lys-Leu-Lys-S5-Arg] (H-HLMACFTCA[S5]KLK[S5]R-OH; staple 10-14; N-terminus and C-terminus assumed) | interacted with the TRB3 protein | 31.5% | significantly higher than that of polypeptide MR2 | interrupted | 100% | 93.33% | 80% | 80%
5 | CSCC[C@H](NC(=O)[C@H](CC(C)C)NC(=O)[C@@H](N)Cc1c[nH]cn1)C(=O)N[C@@H](C)C(=O)N[C@@H](CS)C(=O)N[C@@H](Cc1ccccc1)C(=O)N[C@H](C(=O)N[C@@H](CS)C(=O)N[C@@H](C)C(=O)N[C@@H](CCCCN)C(=O)N[C@@]1(C)CCCC=CCCC[C@@](C)(C(=O)O)NC(=O)[C@H](CCCCN)NC(=O)[C@H](CCCCN)NC(=O)[C@H](CC(C)C)NC1=O)[C@@H](C)O [S11, His-Leu-Met-Ala-Cys-Phe-Thr-Cys-Ala-Lys-S5-Leu-Lys-Lys-S5] (H-HLMACFTCAK[S5]LKK[S5]-OH; staple 11-15; N-terminus and C-terminus assumed) | interacted with the TRB3 protein | 37.8% | significantly higher than that of polypeptide MR2 | interrupted | 100% | 93.33% | 86.67% | 86.67%
